These results are taken from US7166637B2, “Hydroxyindoles, their use as inhibitors of phosphodiesterase 4, and processes for preparing them” (Elbion AG, priority 2002, dated 2007).

For the experiment, the target named is PDE 4 (cytosolic fraction from human polymorphonuclear lymphocytes (PMNLs)). The experiment can be described thus: Inhibition of phosphodiesterase 4 (SPA assay, [3H]-cAMP substrate). The format is biochemical. As to conditions: enzyme preparation from human PMNLs; 0.5 μM [3H]-cAMP; 37° C., 30 minutes. As to the method: The PDE 4 activity is determined using enzyme preparations from human polymorphonuclear lymphocytes (PMNLs).
Human blood (buffy coats) was anticoagulated with citrate. The platelet-rich plasma in the supernatant is separated from the erythrocytes and leucocytes by centrifuging at 700×g for 20 minutes at room temperature (RT). The PMNLs for the PDE 4 determination are isolated by means of a subsequent dextran sedimentation followed by a gradient centrifugation using Ficoll-Paque. After the cells have been washed twice, the erythrocytes which are still present are lysed within 6 minutes by adding 10 ml of hypotonic buffer (155 mM NH4Cl, 10 mM NaHCO3, 0.1 mM EDTA, pH=7.4) at 4° C. The PMNLs, which are still intact, are washed a further two times with PBS and lysed by ultrasonication. The supernatant obtained after centrifuging at 48 000×g at 4° C. for one hour contains the cytosolic PDE 4 fraction and is used for the PDE 4 measurements.
The phosphodiesterase activity is measured using a modified Amersham Pharmacia Biotech method, i.e. an SPA (scintillation proximity assay) assay. The reaction mixtures contain buffer (50 mM tris-HCl (pH 7.4), 5 mM MgCl2, 100 μM cGMP), varying concentrations of the inhibitors, and the corresponding enzyme preparation. The reaction is started by adding the substrate, i.e. 0.5 μM [^3H]-cAMP. The final volume is 100 μl. Test substances are prepared as stock solutions in DMSO. The concentration of DMSO in the reaction mixture is 1% v/v. This DMSO concentration has no effect on PDE activity. After the reaction has been started by adding the substrate, the samples are incubated at 37° C. for 30 minutes. The reaction is stopped by adding a defined quantity of SPA beads and the samples are measured in a beta counter after one hour. The nonspecific enzyme activity (i.e. the blank) is determined in the presence of 100 μM rolipram and subtracted from the test values. The incubation mixtures for the PDE 4 assay contain 100 μM cGMP in order to inhibit any contamination of PDE 3 which may be present.
`O=C(Nc1c(Cl)cncc1Cl)C(=O)c1cn(CC2CC2)c2c(O)cccc12` [Compound 16] registered an IC50 of 30 nM.
`O=C(Nc1c(Cl)cncc1Cl)C(=O)c1cn(Cc2ccc(O)cc2)c2c(O)cccc12` [Compound 22] displayed an IC50 of 3 nM.
In turn, `O=C(Nc1c(Cl)cncc1Cl)C(=O)c1cn(Cc2ccc(F)cc2)c2cccc(O)c12` [Compound 4] returned an IC50 of 938 nM.
As for `O=C(Nc1c(Cl)cncc1Cl)C(=O)c1cn(Cc2ccc(Cl)cc2)c2c(O)cccc12` [Compound 2, N-(3,5-dichloropyrdin-4-yl)-[1-(4-chlorobenzyl)-7-hydroxyindol-3-yl]glyoxylamide], the IC50 is 2 nM.
In the case of `O=C(Nc1c(Cl)cncc1Cl)C(=O)c1cn(Cc2c(F)cccc2F)c2c(O)cccc12` [Compound 8] it was 2 nM.
Take `O=C(Nc1c(Cl)cncc1Cl)C(=O)c1cn(Cc2cccc([N+](=O)[O-])c2)c2c(O)cccc12` [Compound 7]: 2 nM corresponded to half-maximal inhibition (IC50).
`O=C(Nc1c(Cl)cncc1Cl)C(=O)c1cn(Cc2ccc(F)cc2)c2c(O)cccc12` [Compound 5]: the midpoint of inhibition, the IC50, lay at 15 nM.
In turn, `CC(C)Cn1cc(C(=O)C(=O)Nc2c(Cl)cncc2Cl)c2cccc(O)c21` [Compound 15] displayed an IC50 of 20 nM.
In the case of `O=C(Nc1c(Cl)cccc1Cl)C(=O)c1cn(Cc2ccc(F)cc2)c2c(O)cccc12` [Compound 17] it was 141 nM.
In turn, `O=C(Nc1c(Cl)cncc1Cl)C(=O)c1cn(Cc2ccccc2F)c2c(O)cccc12` [Compound 6] returned an IC50 of 1 nM.

The IC50 is the concentration that inhibits the measured activity by half. The low end stands for higher potency, the high end for lower potency.
